The text below walks through data of patent US10377770B2 (Novartis AG, priority 2015, dated 2019).

The target of this experiment is C-Raf FL (full length CRAF with Y340E and Y341E activating mutations, co-expressed with h14-3-3 zeta) (Homo sapiens (Human), UniProt P04049, Y340E/Y341E). Description: In vitro Raf activity determination, AlphaScreen p-MEK readout, c-Raf (C-Raf FL). The format is biochemical. The following applies: c-Raf approximately 4 nM, ATP 1 μM, pre-incubation 60 minutes, reaction 1 hour. The essentials: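 Phosphorylation of kinase-dead biotinylated MEK1 (~10 nM) by C-Raf FL (~4 nM) read by AlphaScreen luminescence with anti-phospho-MEK1/2 after EDTA stop. ATP was 1 μM, with a 1 h reaction at room temperature. Compounds were pre-incubated with enzyme and substrate for 60 min in Tris/MgCl2 buffer, pH 7.5.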
Chain of C-Raf FL (full length CRAF with Y340E and Y341E activating mutations, co-expressed with h14-3-3 zeta) (P04049 whole entry Y340E/Y341E): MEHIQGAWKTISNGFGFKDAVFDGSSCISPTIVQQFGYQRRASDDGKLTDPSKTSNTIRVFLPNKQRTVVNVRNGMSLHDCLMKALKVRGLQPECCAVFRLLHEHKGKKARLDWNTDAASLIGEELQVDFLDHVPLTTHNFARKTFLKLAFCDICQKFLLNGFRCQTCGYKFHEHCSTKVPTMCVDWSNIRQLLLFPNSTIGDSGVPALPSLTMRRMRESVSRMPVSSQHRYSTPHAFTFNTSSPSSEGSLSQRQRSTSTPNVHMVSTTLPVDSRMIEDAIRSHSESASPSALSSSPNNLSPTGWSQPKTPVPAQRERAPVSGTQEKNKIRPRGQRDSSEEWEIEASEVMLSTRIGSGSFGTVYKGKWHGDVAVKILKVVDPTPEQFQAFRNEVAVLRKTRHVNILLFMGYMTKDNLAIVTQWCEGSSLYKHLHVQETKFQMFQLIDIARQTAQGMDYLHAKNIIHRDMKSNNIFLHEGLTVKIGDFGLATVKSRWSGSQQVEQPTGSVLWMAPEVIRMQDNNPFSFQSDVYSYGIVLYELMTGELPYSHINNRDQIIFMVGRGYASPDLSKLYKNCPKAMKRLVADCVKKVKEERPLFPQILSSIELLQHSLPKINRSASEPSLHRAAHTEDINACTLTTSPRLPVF
Chain of C-Raf FL (full length CRAF with Y340E and Y341E activating mutations, co-expressed with h14-3-3 zeta) (P63104 whole entry partner): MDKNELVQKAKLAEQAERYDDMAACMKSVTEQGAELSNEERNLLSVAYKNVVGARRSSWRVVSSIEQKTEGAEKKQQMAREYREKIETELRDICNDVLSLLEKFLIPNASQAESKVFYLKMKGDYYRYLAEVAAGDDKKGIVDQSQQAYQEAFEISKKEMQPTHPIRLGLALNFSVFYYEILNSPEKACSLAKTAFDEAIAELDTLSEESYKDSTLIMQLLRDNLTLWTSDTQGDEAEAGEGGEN

On to `CNC(=O)C1Cc2ccc(-c3cc(NC(=O)c4ccnc(C(F)(F)F)c4)ccc3C)cc2N2CCOCC12` (racemic) [Example 66, (rac)-N-methyl-9-(2-methyl-5-(2-(trifluoromethyl)isonicotinamido)phenyl)-1,2,4,4a,5,6-hexahydro-[1,4]oxazino[4,3-a]quinoline-5-carboxamide], for which the midpoint of inhibition, the IC50, lay at 0.11 nM.
To `Cc1ccc(NC(=O)c2ccnc(C(C)(C)C#N)c2)cc1-c1cnc2c(c1)N1CCOC[C@H]1C[C@@H]2O` (racemic) [Example 149, rac-cis-2-(2-cyanopropan-2-yl)-N-(3-(6-hydroxy-1,2,4,4a,5,6-hexahydro-[1,4]oxazino[4,3-a][1,5]naphthyridin-9-yl)-4-methylphenyl)isonicotinamide] belongs 0.013 nM; to `CCN1C[C@@H]2COCCN2c2cc(-c3cc(NC(=O)c4ccnc(C(F)(F)F)c4)ccc3C)cnc2C1=O` [Example 500, (R)-N-(3-(6-ethyl-7-oxo-1,2,4a,5,6,7-hexahydro-4H-[1,4]oxazino[4,3-a]pyrido[2,3-f][1,4]diazepin-10-yl)-4-methylphenyl)-2-(trifluoromethyl)iso-nicotinamide], 0.1 nM.
To `Cc1ccc(NC(=O)c2ccnc(C(C)(F)F)c2)cc1-c1cc2c(nn1)OC(C)(C)[C@H]1COCCN21` [Example 138, (R)-2-(1,1-Difluoroethyl)-N-(3-(6,6-dimethyl-6a,7,9,10-tetrahydro-6H-[1,4]oxazino[4,3-d]pyridazino[3,4-b][1,4]oxazin-2-yl)-4-methylphenyl)isonicotinamide] belongs 0.59 nM; to `CCN1C(=O)OC2COCCC2c2cc(-c3cc(NC(=O)c4ccnc(C(F)(F)F)c4F)ccc3C)cnc21` [Example 299, N-(3-((4aS,11bR- cis)-7-ethyl-6-oxo-2,4,4a,6,7,11b-hexahydro-1H-pyrano[4,3-f]pyrido[2,3-d][1,3]oxazepin-10-yl)-4-methylphenyl)-3-fluoro-2-(trifluoromethyl) isonicotinamide], 0.1 nM.
To `Cc1ccc(NC(=O)c2ccnc(C(F)(F)F)c2)cc1-c1ccc2c(c1)N1CCOC[C@H]1[C@](F)(CO)C2` [Example 381, N-(3-((4aS,5S)-5-fluoro-5-(hydroxymethyl)-1,2,4,4a,5,6-hexahydro-[1,4]oxazino[4,3-a]quinolin-9-yl)-4-methylphenyl)-2-(trifluoromethyl)isonicotinamide] belongs 0.3 nM.
Turning to `Cc1ccc(NC(=O)c2cnnc(C(F)(F)F)c2)cc1-c1ccc2c(c1)N1CCOCC1CC2O` (racemic) [Example 10, (rac)-N-(3-(6-hydroxy-1,2,4,4a,5,6-hexahydro-[1,4]oxazino[4,3-a]quinolin-9-yl)-4-methylphenyl)-6-(trifluoromethyl)pyridazine-4-carboxamide], half-maximal inhibition (IC50) was put at 0.036 nM.
The figure for `Cc1ncc(NC(=O)c2ccnc(C(C)(F)F)c2)cc1-c1ccc2c(c1)N1CCOC[C@@H]1[C@@](F)(CO)C2` [Example 85, 2-(1,1-difluoroethyl)-N-(5-((4aR,5R)-5-fluoro-5-(hydroxymethyl)-1,2,4,4a,5,6-hexahydro-[1,4]oxazino[4,3-a]quinolin-9-yl)-6-methylpyridin-3-yl)isonicotinamide] is 0.07 nM; for `CCN1C(=O)N2COCCC2(C)c2cc(-c3cc(NC(=O)c4cccc(C(F)(F)F)c4)cnc3C)ccc21` (stereo not drawn) [Example 245, N-(5-(7-ethyl-11b-methyl-6-oxo-1,2,4,6,7,11b-hexahydro-[1,3]oxazino[3,4-c]quinazolin-10-yl)-6-methylpyridin-3-yl)-3-(trifluoromethyl) benzamide] it is 0.2 nM; for `CCNC(=O)C1Cc2ccc(-c3cc(NC(=O)c4ccnc(C(F)(F)F)c4)ccc3C)cc2N2CCOCC12` (racemic) [Example 73, (rac)-N-ethyl-9-(2-methyl-5-(2-(trifluoromethyl)isonicotinamido)phenyl)-1,2,4,4a,5,6-hexahydro-[1,4]oxazino[4,3-a]quinoline-5-carboxamide] it is 0.2 nM.
To `CCN1C(=O)C2COCCN2c2cc(-c3cc(NC(=O)c4ccnc(C(F)(F)F)c4)ccc3C)cnc21` (racemic) [Example 113, rac-N-(3-(6-Ethyl-5-oxo-1,2,4,4a,5,6-hexahydropyrido[2′,3′:5,6]pyrazino[2,1-c][1,4]oxazin-9-yl)-4-methylphenyl)-2-(trifluoromethyl)isonicotinamide] belongs 0.0084 nM.
Molecule `Cc1ccc(NC(=O)c2ccnc(C(F)(F)F)c2)cc1-c1cnc2c(c1)N1CCOC[C@H]1C[C@]2(C)O` (racemic) [Example 40, (rac)-(cis)-N-(3-(6-hydroxy-6-methyl-1,2,4,4a,5,6-hexahydro-[1,4]oxazino[4,3-a][1,5]naphthyridin-9-yl)-4-methylphenyl)-2-(trifluoromethyl)isonicotinamide] yielded an IC50 of 0.066 nM.
The figure for `CCC(=O)NC1CC2COCCN2c2cc(-c3cc(NC(=O)c4ccnc(C(F)(F)F)c4)ccc3C)cnc21` (racemic) [Example 172, rac-N-(4-methyl-3-(6-propionamido-1,2,4,4a,5,6-hexahydro-[1,4]oxazino[4,3-a][1,5]naphthyridin-9-yl)phenyl)-2-(trifluoromethyl)isonicotinamide] is 0.034 nM.
To `CNC(=O)C1Cc2ccc(-c3cc(NC(=O)c4cccc(C(F)(F)F)c4)cnc3C)cc2N2CCOCC12` (racemic) [Example 68, (rac)-N-methyl-9-(2-methyl-5-(3-(trifluoromethyl)benzamido)pyridin-3-yl)-1,2,4,4a,5,6-hexahydro-[1,4]oxazino[4,3-a]quinoline-5-carboxamide] belongs 0.34 nM; to `CCN1C(=O)[C@@H]2[C@H]3COC[C@H]3[C@@H]2c2cc(-c3cc(NC(=O)c4cncc(C(F)(F)F)c4)ccc3C)cnc21` [Example 274, N-(3-((6aS, 6bS, 9aS, 9bS)-5-ethyl-6-oxo-5,6,6a,6b,7,9,9a,9b-octahydrofuro[3′,4′: 3,4]cyclobuta[1,2-c][1,8]naphthyridin-2-yl)-4-methylphenyl)-5-(trifluoromethyl) nicotinamide], 0.5 nM; to `Cc1ccc(NC(=O)c2ccnc(C(F)(F)F)c2)cc1-c1ccc2c(c1)N1CCOC[C@H]1C[C@H]2O` (racemic) [Example 3, (rac)-(trans)-N-(3-(6-hydroxy-1,2,4,4a,5,6-hexahydro-[1,4]oxazino[4,3-a]quinolin-9-yl)-4-methylphenyl)-2-(trifluoromethyl)isonicotinamide], 0.031 nM.
`Cc1ccc(NC(=O)c2cncc(C(F)(F)F)c2)cc1-c1cc2c(cc1F)C[C@@](F)(CO)[C@@H]1COCCN21` [Example 486, N-(3-((4aS,5S)-5,8-difluoro-5-(hydroxymethyl)-1,2,4,4a,5,6-hexahydro-[1,4]oxazino[4,3-a]quinolin-9-yl)-4-methylphenyl)-5-(trifluoromethyl) nicotinamide] had an IC50 of 1.6 nM.
The figure for `Cc1ncc(NC(=O)c2cccc(C(F)(F)F)c2)cc1-c1cnc2c(c1)N1CCOC[C@@H]1[C@@H](CO)C2` [Example 121, N-(5-((4aS,5S)-5-(hydroxymethyl)-1,2,4,4a,5,6-hexahydro-[1,4]oxazino[4,3-a][1,5]naphthyridin-9-yl)-6-methylpyridin-3-yl)-3-(trifluoromethyl)benzamide] is 0.0095 nM.
